A short description of data set [1]: log P by HPLC on reversed-phase column (EEC Directive 79/831 Annex V.A8). The format is physicochemical. The conditions noted are these: 0.1% aqueous formic acid and acetonitrile, linear gradient 10% to 90% acetonitrile. An outline of the steps:
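Column at 40° C; mobile phases 0.1% aqueous formic acid and acetonitrile, linear gradient 10% to 90% acetonitrile. Calibrated with unbranched alkan-2-ones (3 to 16 carbons) of known log P; values from retention times by linear interpolation between two successive alkanones.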

The test system of another data set is Sphaerotheca fuliginea. The data set is described as follows: In vivo preventive test on Sphaerotheca fuliginea (cucumber). The settings on record: preventive spray, 500 ppm of active ingredient, evaluated 7 days after inoculation. As to the method:
In Vivo Preventive Test on Sphaerotheca fuliginea (Cucumber)
Solvent: 49 parts by weight of N,N-dimethylformamide
Emulsifier: 1 part by weight of alkylarylpolyglycolether
(§1) To produce a suitable preparation of active compound, 1 part by weight of active compound is mixed with the stated amounts of solvent and emulsifier, and the concentrate is diluted with water to the desired concentration.
To test for preventive activity, young plants are sprayed with the preparation of active compound at the stated rate of application. After the spray coating has dried on, the plants are inoculated with an aqueous spore suspension of Sphaerotheca fuliginea. The plants are then placed in a greenhouse at approximately 23° C. and a relative atmospheric humidity of approximately 70%.
(§2) The test is evaluated 7 days after the inoculation. 0% means an efficacy which corresponds to that of the untreated control, while an efficacy of 100% means that no disease is observed.

Another data set relates to Alternaria solani. The data set is described as follows: In vivo preventive test on Alternaria solani (tomato). The conditions noted are these: preventive spray, 500 ppm of active ingredient, evaluated 7 days after inoculation. In a few lines: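 Young tomato plants sprayed with compound formulated in DMF with alkylarylpolyglycolether emulsifier and diluted in water, then inoculated one day later with A. solani spore suspension. Kept 1 day at about 22 °C, 100% humidity, then about 20 °C, 96% humidity. Efficacy scored 7 days post-inoculation, 0% = untreated control, 100% = no disease.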

A further data set relates to Pyrenophora teres. The data set can be described thus: In vivo preventive test on Pyrenophora teres (barley). The settings on record: preventive spray, 500 ppm of active ingredient, evaluated 7-9 days after inoculation. In a few lines: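 Young barley plants were sprayed with compound formulated in N,N-dimethylacetamide/emulsifier and diluted with water, then inoculated with P. teres spores one day later. After 48 h at 22° C., 100% humidity, plants stood in a greenhouse (~20° C., ~80% humidity); efficacy versus untreated control was scored 7-9 days post-inoculation.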

For another data set, the system named is Leptosphaeria nodorum. The data set is described as follows: In vivo preventive test on Leptosphaeria nodorum (wheat). The conditions noted are these: preventive spray, 500 ppm of active ingredient, evaluated 7-9 days after inoculation. As to the method: In Vivo Preventive Test on Leptosphaeria nodorum (Wheat)
(§3) Solvent: 49 parts by weight of N,N-dimethylacetamide
(§4) Emulsifier: 1 part by weight of alkylaryl polyglycol ether
as §1
To test for preventive activity, young plants are sprayed with a preparation of active compound at the stated rate of application. One day after this treatment, the plants are inoculated with an aqueous spore suspension of Leptosphaeria nodorum. The plants remain for 48 hours in an incubation cabinet at 22° C. and a relative atmospheric humidity of 100%. Then the plants are placed in a greenhouse at a temperature of approximately 22° C. and a relative atmospheric humidity of approximately 90%.
The test is evaluated 7-9 days after the inoculation. 0% means an efficacy which corresponds to that of the untreated control, while an efficacy of 100% means that no disease is observed.
Under these conditions, good (at least 70%) to excellent protection (at least 95%) is observed at a dose of 500 ppm of active ingredient with the following compounds from table D: […]

The next data set relates to Septoria tritici. The data set can be described thus: In vivo preventive test on Septoria tritici (wheat). The conditions noted are these: preventive spray, 500 ppm of active ingredient, evaluated 21 days after inoculation. As to the method: In Vivo Preventive Test on Septoria tritici (Wheat)
as §3, §4
(§5) To produce a suitable preparation of active compound, 1 part by weight of active compound or active compound combination is mixed with the stated amounts of solvent and emulsifier, and the concentrate is diluted with water to the desired concentration.
(§6) To test for preventive activity, young plants are sprayed with the preparation of active compound or active compound combination at the stated rate of application.
After the spray coating has been dried, the plants are sprayed with a spore suspension of Septoria tritici. The plants remain for 48 hours in an incubation cabinet at approximately 20° C. and a relative atmospheric humidity of approximately 100% and afterwards for 60 hours at approximately 15° C. in a translucent incubation cabinet at a relative atmospheric humidity of approximately 100%.
The plants are placed in the greenhouse at a temperature of approximately 15° C. and a relative atmospheric humidity of approximately 80%.
The test is evaluated 21 days after the inoculation. 0% means an efficacy which corresponds to that of the untreated control, while an efficacy of 100% means that no disease is observed.

For the next data set, the system named is Puccinia triticina. The data set can be described thus: In vivo preventive test on Puccinia triticina (wheat). The conditions noted are these: preventive spray, 500 ppm of active ingredient, evaluated 8 days after inoculation. As to the method:
In Vivo Preventive Test on Puccinia triticina (Wheat)
as §3, §4, §5, §6
After the spray coating has been dried, the plants are sprayed with a spore suspension of Puccinia triticina. The plants remain for 48 hours in an incubation cabinet at approximately 20° C. and a relative atmospheric humidity of approximately 100%.
The plants are placed in the greenhouse at a temperature of approximately 20° C. and a relative atmospheric humidity of approximately 80%.
The test is evaluated 8 days after the inoculation. 0% means an efficacy which corresponds to that of the untreated control, while an efficacy of 100% means that no disease is observed.

For data set [2], the system named is Blumeria graminis f.sp. hordei. The data set can be described thus: In vivo preventive test on Blumeria graminis (barley). The settings on record: preventive spray, 500 ppm of active ingredient, evaluated 7 days after inoculation. As to the method:
In Vivo Preventive Test on Blumeria graminis (Barley)
as §3, §4, §5, §6
After the spray coating has been dried, the plants are dusted with spores of Blumeria graminis f.sp. hordei.
The plants are placed in the greenhouse at a temperature of approximately 18° C. and a relative atmospheric humidity of approximately 80% to promote the development of mildew pustules.
as §2

[3] abbreviates: HPLC, reversed-phase C 18, 40° C.
Where [4] appears, read: HPLC on reversed-phase column (C 18), 40° C.

`CC(c1ccccc1Cl)N(C)C(=S)c1c(C(F)F)nn(C)c1F` (racemic) [Example 18]: the logP (usually the decadic logarithm of the partition coefficient of the neutral form, usually between octanol and water) in data set [1] (setting [3]) is reported as 3.44. Besides, the Efficacy in the data set with Sphaerotheca fuliginea amounted to 90%; with Alternaria solani it was 95%; with Pyrenophora teres, 100%; in the data set on Leptosphaeria nodorum, 95%.
On to `CC(NC(=O)c1c(C(F)F)nn(C)c1F)c1cccc(Cl)c1Cl` (racemic) [Example 29], for which the logP in data set [1] (setting [3]) is on record as 3.13. Besides, the figures for the Efficacy in the data set with Alternaria solani, in the data set on Pyrenophora teres and with Septoria tritici were 94%, 100% and 88%, respectively.
`CC(c1ccc(Oc2ccccc2)cc1)N(C)C(=O)c1c(C(F)F)nn(C)c1F` (racemic) [Example 154]: the logP in data set [1] (setting [4]) was 3.59. In addition, the Efficacy was found to be 95% in the data set with Alternaria solani, 100% in the data set with Pyrenophora teres and 70% with Leptosphaeria nodorum.
On to `Cn1nc(C(F)F)c(C(=O)NC(C)(C)c2ccc(Cl)cc2Cl)c1F` [Example 39], for which the logP in data set [1] (setting [3]) came out at 4.39. The Efficacy in the data set with Sphaerotheca fuliginea is recorded as 95%; in the data set on Alternaria solani, 70%; in the data set with Pyrenophora teres it was 95%; in the data set with Leptosphaeria nodorum, 90%.
`CC(NC(=S)c1c(C(F)F)nn(C)c1Cl)c1ccc(Cl)cc1Cl` (stereo not drawn) [Example 44] showed a logP in data set [1] (setting [3]) of 3.99. The Efficacy with Alternaria solani was 100%; with Pyrenophora teres, 100%; with Leptosphaeria nodorum, 89%.
In the case of `CON(C(=O)c1c(C(F)F)nn(C)c1F)C(C)c1ccc(Cl)cc1Cl` (stereo not drawn) [Example 45], the logP in data set [1] (setting [3]) was determined as 3.65. Also, the Efficacy is listed as 100% with Sphaerotheca fuliginea, 100% in the data set with Pyrenophora teres and 95% in the data set on Leptosphaeria nodorum.
`CC(c1cc(Cl)ccc1Cl)N(C)C(=O)c1c(C(F)F)nn(C)c1F` (stereo not drawn) [Example 56]: the logP in data set [1] (setting [3]) was determined as 3.15. Besides, the Efficacy in the data set with Sphaerotheca fuliginea is 95%; in the data set with Alternaria solani, 100%; with Pyrenophora teres, 100%; in the data set with Leptosphaeria nodorum, 70%.
Turning to `CCN(Cc1ccccc1C(C)C)C(=O)c1c(C(F)F)nn(C)c1F` [Example 68], the logP in data set [1] (setting [3]) turned out to be 3.42. For the same compound, the Efficacy in the data set on Sphaerotheca fuliginea came to 100%; in the data set with Alternaria solani it was 80%; in the data set on Pyrenophora teres, 100%; in the data set with Puccinia triticina it was 70%; in the data set with Septoria tritici, 100%; in data set [2] it was 100%.
For the compound `CC(C)c1ccccc1CN(C)C(=O)c1c(C(F)F)nn(C)c1F` [Example 72], the logP in data set [1] (setting [3]) came out at 3.11. Further, the Efficacy in the data set with Sphaerotheca fuliginea is reported as 98%; in the data set with Alternaria solani, 95%; with Pyrenophora teres, 100%; in the data set on Leptosphaeria nodorum, 78%; in the data set on Septoria tritici it was 90%; in data set [2], 100%.
With `CC(C)c1ccccc1CNC(=O)c1c(C(F)F)nn(C)c1F` [Example 74], in data set [1] (setting [3]), the logP was determined as 3.02. Also, the Efficacy in the data set with Sphaerotheca fuliginea is reported as 95%; with Alternaria solani, 95%; with Pyrenophora teres, 100%; in the data set with Leptosphaeria nodorum, 80%.
For `CON(Cc1ccccc1C(C)C)C(=O)c1c(C(F)F)nn(C)c1F` [Example 76], in data set [1] (setting [3]), the logP is 3.37. The Efficacy with Sphaerotheca fuliginea is listed as 93%; in the data set on Alternaria solani it was 94%; with Leptosphaeria nodorum it was 89%.
The compound `Cn1nc(C(F)F)c(C(=O)N(Cc2ccccc2[Si](C)(C)C)C2CCC2)c1F` [Example 98] had a logP in data set [1] (setting [3]) of 4.61. In addition, the Efficacy with Sphaerotheca fuliginea worked out at 96%; with Alternaria solani, 70%; with Puccinia triticina, 95%.
As for `CCN(Cc1ccccc1[Si](C)(C)C)C(=O)c1c(C(F)F)nn(C)c1F` [Example 99], in data set [1] (setting [3]), the logP is on record as 4.09. Moreover, the Efficacy in the data set on Sphaerotheca fuliginea turned out to be 95%; in the data set on Alternaria solani it was 95%; in the data set on Pyrenophora teres, 95%; with Puccinia triticina, 100%.
`C=CCN(Cc1ccccc1[Si](C)(C)C)C(=O)c1c(C(F)F)nn(C)c1F` [Example 100] had a logP in data set [1] (setting [3]) of 4.27. Moreover, the Efficacy with Alternaria solani and in the data set on Puccinia triticina was 80% in each case.
In data set [1] (setting [3]), `C#CCN(Cc1ccccc1[Si](C)(C)C)C(=O)c1c(C(F)F)nn(C)c1F` [Example 101] came in with a logP of 3.93. Also, the results for the Efficacy in the data set with Alternaria solani, in the data set on Pyrenophora teres and in the data set on Puccinia triticina were 70%, 80% and 90%, respectively.
Take `Cn1nc(C(F)F)c(C(=O)NCc2ccccc2SC(F)(F)F)c1Cl` [Example 106]: the logP in data set [1] (setting [4]) worked out at 3.29. The Efficacy was 90% in the data set with Pyrenophora teres and 80% with Puccinia triticina.
As for `CC(c1cc(Cl)cc(Cl)c1)N(C)C(=O)c1c(C(F)F)nn(C)c1F` (stereo not drawn) [Example 117], in data set [1] (setting [4]), the logP is 3.46. For the same compound, the Efficacy came to 95% in the data set with Sphaerotheca fuliginea; 100% with Alternaria solani; 100% in the data set with Pyrenophora teres; 70% in the data set on Leptosphaeria nodorum; 70% with Puccinia triticina.
The compound `CC(c1cc(Cl)cc(Cl)c1)N(C)C(=S)c1c(C(F)F)nn(C)c1F` (stereo not drawn) [Example 118] came in with a logP in data set [1] (setting [4]) of 4.24. Also, the Efficacy in the data set on Sphaerotheca fuliginea was 95%; in the data set on Alternaria solani it was 100%; with Pyrenophora teres, 100%; with Leptosphaeria nodorum, 70%.
For the compound `Cn1nc(C(F)F)c(C(=O)NC2(c3ccc(Cl)c(C(F)(F)F)c3)CC2)c1Cl` [Example 126], the logP in data set [1] (setting [4]) was determined as 3.41. The Efficacy was 95% in the data set on Pyrenophora teres and 78% in the data set with Puccinia triticina.
As for `CN(Cc1ncc(Cl)cc1Cl)C(=O)c1c(C(F)F)nn(C)c1F` [Example 179], the logP in data set [1] (setting [4]) was determined as 2.53. In addition, the Efficacy with Alternaria solani is on record as 90%; in the data set on Pyrenophora teres, 100%; with Leptosphaeria nodorum it was 70%.
Compound `CN(Cc1ncc(Cl)cc1Cl)C(=O)c1c(C(F)F)nn(C)c1Cl` [Example 180] displayed a logP in data set [1] (setting [4]) of 2.73. The Efficacy was 80% with Alternaria solani, 100% in the data set with Pyrenophora teres and 80% with Puccinia triticina.
For `CON(Cc1ncc(Cl)cc1Cl)C(=O)c1c(C(F)F)nn(C)c1F` [Example 181], the logP in data set [1] (setting [4]) was found to be 2.73. Besides, the Efficacy worked out at 80% in the data set with Alternaria solani, 100% in the data set on Pyrenophora teres, 70% with Leptosphaeria nodorum and 70% in the data set on Puccinia triticina.
In the case of `Cn1nc(C(F)F)c(C(=O)N(Cc2ncc(Cl)cc2Cl)C2CCCC2)c1Cl` [Example 184], the logP in data set [1] (setting [4]) is listed as 4.11. Also, in the data set with Puccinia triticina, the Efficacy was 70%.
